PMC12475274, “Harnessing indole scaffolds to identify small-molecule IRE1α inhibitors modulating XBP1 mRNA splicing” (Nature Communications, 2025)
Where “and” joins values, the source holds several entries; their conditions need not be identical. Identical values can stand only once. Like-named read-outs stand apart in the source and are kept apart here.

Tests used:
[1] = target: T1, dephosphorylated IRE1α (547–977) (Homo sapiens, UniProt O75460); assay: FRET-based IRE1α RNase activity assay, dephosphorylated IRE1α; type: biochemical; details: for inhibition at 50 µM: read-out: IRE1α inhibition%
T1 construct: Human IRE1α kinase and RNase domain (residues 547–977) was subcloned into pLIB plasmid; His tag (with TEV cleavage site) (N, cleaved yes); made in house; host or cells: Sf9 insect cells, baculovirus (Bac-to-Bac)
T1 sequence (O75460 547-977): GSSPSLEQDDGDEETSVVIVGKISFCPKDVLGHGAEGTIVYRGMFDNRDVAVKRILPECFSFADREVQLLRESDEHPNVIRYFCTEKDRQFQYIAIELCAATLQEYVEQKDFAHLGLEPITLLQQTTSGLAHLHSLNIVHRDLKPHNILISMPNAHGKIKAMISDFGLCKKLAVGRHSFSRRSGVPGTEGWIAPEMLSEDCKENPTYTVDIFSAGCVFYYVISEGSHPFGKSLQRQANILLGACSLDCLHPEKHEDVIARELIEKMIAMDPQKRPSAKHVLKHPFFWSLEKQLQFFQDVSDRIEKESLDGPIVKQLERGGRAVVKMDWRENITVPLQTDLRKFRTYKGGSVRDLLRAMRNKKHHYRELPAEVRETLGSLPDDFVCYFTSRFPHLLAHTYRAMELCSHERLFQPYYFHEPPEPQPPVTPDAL
Protocol: (§1) Human IRE1α kinase and RNase domain (residues 547–977) was subcloned into pLIB plasmid with a His tag and TEV cleavage site, and expressed using Bac-to-Bac expression system. The primers used are listed in Supplementary Table S3. The protein purification was performed following established procedures. Briefly, Sf9 cells were infected with baculovirus and incubated at 27 °C 110 rpm for 72 h. The cells were collected by centrifugation at 4000 × g for 15 min and the cell pellet was resuspended in lysis buffer (50 mM HEPES pH 7.5, 300 mM NaCl, 10% glycerol, 1 mM MgCl2, 1 mM TCEP, 5 mM imidazole), then supplemented with 1:10,000 benzonase (Sigma, E1014), 1 tablet/25 mL […]™ Protease Inhibitor Cocktail tablets (Sigma, S8830) and 1 mM PMSF before lysed by sonication at 4 °C. […] The protein elution was incubated with TEV protease to remove His tag at 4 °C overnight. Then the sample was diluted 1:6 in buffer (50 mM HEPES pH 7.5, 1 mM TCEP, 5% glycerol) and loaded onto a 5 mL pre-packaged Q HP anion exchange column (Cytiva, HiTrap Q HP) pre-equilibrated with QA buffer (50 mM HEPES pH 7.5, 50 mM NaCl, 1 mM TCEP, 5% glycerol). The unphosphorylated and phosphorylated protein was separated by eluting the protein with a very shallow gradient with 0-30% buffer QB (50 mM HEPES pH 7.5, 1 M NaCl, 1 mM TCEP, 5% glycerol) over 80 CV. Different peaks were collected separately and verified by LC-MS. The fully phosphorylated fraction was collected and further purified by size exclusion chromatography (Cytiva, HiLoad 16/600 Superdex 200 pg,) with SEC buffer (25 mM HEPES pH 7.5, 250 mM NaCl, 1 mM TCEP, 10% glycerol) and fractioned as monomeric peak. The rest protein fraction from the Q HP anion exchange column was incubated with Lambda protein phosphatase (New England BioLabs, P0753S) overnight at 4 °C, the dephosphorylation was confirmed by LC-MS. The unphosphorylated protein was further purified by size exclusion chromatography with the SEC buffer described above. The purified phosphorylated (p-IRE1α) and dephosphorylated (IRE1α) protein aliquots were stored at −80 °C for future usage.
The dual-labeled RNA substrate with a FAM at 5’ and the BHQ-1 at 3’ containing the XBP1 sequence (5′FAM-[…]-3′BHQ1) was purchased from Integrated DNA Technologies (IDT). The FRET-based IRE1α RNase activity assay was carried out in reaction buffer containing 20 mM HEPES pH 7.5, 50 mM KOAc, 1 mM MgOAc2, 1 mM DTT, 0.05% v/v TritonX-100, at a total reaction volume of 20 μL in a 384-well black plate (4514, Corning). For unphosphorylated IRE1α (IRE1α), a final concentration of 40 nM IRE1α protein and 100 nM RNA substrate was used. For phosphorylated IRE1 (p-IRE1α), a final concentration of 4 nM p-IRE1α protein and 200 nM RNA substrate was used. The indicated compound and IRE1α protein were incubated for 30 min at room temperature before the substrate was added to the reaction. The plate was then kinetically read over one hour at room temperature using a TECAN Spark plate reader. The measurement was carried out using the fluorescence top reading mode at the excitation wavelength of 485 nm and the emission wavelength of 535 nm with a 10 nm excitation and emission bandwidth. The linear part of the reaction curve was adopted and fitted with sample linear regression to obtain the slope, and the slope was adopted to reflect the reaction rate. The inhibition % was calculated by using the equation: inhibition% = 100 × (slope of DMSO control – slope of the sample)/(slope of DMSO control – slope of blank control), DMSO control: DMSO with protein and RNA substrate; Blank control: DMSO with RNA substrate. The IC50 values were calculated using the concentration-response model in GraphPad Prism 9. […]

[2] = target: T2, phosphorylated IRE1α (p-IRE1α) (Homo sapiens, UniProt O75460); assay: FRET-based IRE1α RNase activity assay, phosphorylated IRE1α; type: biochemical; details: for inhibition at 50 µM: read-out: p-IRE1α inhibition%
T2 construct: Human IRE1α kinase and RNase domain (residues 547–977) was subcloned into pLIB plasmid; His tag (with TEV cleavage site) (N, cleaved yes); made in house; host or cells: Sf9 insect cells, baculovirus (Bac-to-Bac)
T2 sequence (O75460 547-977): as above
Protocol: as §1
The dual-labeled RNA substrate with a FAM at 5’ and the BHQ-1 at 3’ containing the XBP1 sequence (5′FAM-[…]-3′BHQ1) was purchased from Integrated DNA Technologies (IDT). The FRET-based IRE1α RNase activity assay was carried out in reaction buffer containing 20 mM HEPES pH 7.5, 50 mM KOAc, 1 mM MgOAc2, 1 mM DTT, 0.05% v/v TritonX-100, at a total reaction volume of 20 μL in a 384-well black plate (4514, Corning). For unphosphorylated IRE1α (IRE1α), a final concentration of 40 nM IRE1α protein and 100 nM RNA substrate was used. For phosphorylated IRE1 (p-IRE1α), a final concentration of 4 nM p-IRE1α protein and 200 nM RNA substrate was used. The indicated compound and IRE1α protein were incubated for 30 min at room temperature before the substrate was added to the reaction. The plate was then kinetically read over one hour at room temperature using a TECAN Spark plate reader. The measurement was carried out using the fluorescence top reading mode at the excitation wavelength of 485 nm and the emission wavelength of 535 nm with a 10 nm excitation and emission bandwidth. The linear part of the reaction curve was adopted and fitted with sample linear regression to obtain the slope, and the slope was adopted to reflect the reaction rate. The inhibition % was calculated by using the equation: inhibition% = 100 × (slope of DMSO control – slope of the sample)/(slope of DMSO control – slope of blank control), DMSO control: DMSO with protein and RNA substrate; Blank control: DMSO with RNA substrate. The IC50 values were calculated using the concentration-response model in GraphPad Prism 9.

[3] = FRET assay at 50 μM, mean (± SEM)
[4] = FRET assay, RNase activity, mean (± SEM), read-out: IRE1α IC50
[5] = FRET assay, source data, unit from Fig. 3 / sheet Fig. 2b, read-out: IRE1a IC50, individual replicates (n1-n4)
[6] = FRET assay, RNase activity, mean (± SEM), read-out: p-IRE1α IC50
[7] = FRET assay, source data, unit from Fig. 3, read-out: p-IRE1a IC50, individual replicates (n1-n4)
[8] = FRET assay at 50 μM, source data, 50 µM

| Structure (SMILES) | inhibition at 50 µM [1, 3] | inhibition at 50 µM [2, 3] | IC50 [1, 4] | IC50 [1, 5] | IC50 [2, 6] | IC50 [2, 7] | other results |
| --- | --- | --- | --- | --- | --- | --- | --- |
| COC(=O)CCc1c(C)n(C(=O)c2ccc(Cl)cc2)c2ccc(OC)cc12 [cms04] | < 30% | < 30% |  |  |  |  |  |
| COc1ccc2c(c1)c(CC(=O)O)c(C)n2C(=O)c1ccc(Cl)cc1 [Indomethacin, indomethacin, reference compound] | ≤ 50% | < 30% |  |  |  |  | IRE1α inhibition% ([1]; FRET assay at 50 μM, mean (± SEM), 50 µM): < 30% |
| COc1ccc2c(c1)c(CC(=O)O)c(C)n2C(=O)c1ccc(N(C)C)cc1 [idm06] |  |  |  |  |  |  | Inhibiton% @ 50 Μm ([1]; IRE1a, @ 50 Μm, individual replicates (n1-n3), Supplementary Fig. 2a): 31.43% and 32.06% and 32.96% and 41.19% and 38.68%; Inhibiton% @ 50 Μm, mean ([1]; IRE1a, @ 50 Μm, mean, Supplementary Fig. 2a): 35.27%; Inhibiton% @ 50 Μm ([2]; p-IRE1a, @ 50 Μm, individual replicates (n1-n3), Supplementary Fig. 2a): 36.04% and 36.79% and 33.53% and 36.40% and 23.29% and 29.46%; Inhibiton% @ 50 Μm, mean ([2]; p-IRE1a, @ 50 Μm, mean, Supplementary Fig. 2a): 32.58% |
| COc1ccc2c(c1)c(CCCC(=O)O)c(C)n2C(=O)c1ccc(Cl)cc1 [cms02] | 40.3% | 42.5% |  |  |  |  | IRE1a inhibition(%), individual measurements [1, 8]: 64.1986% and 50.8974% and 61.5831% and 7.967% and 17.0403%; p-IRE1a Inhibiton%, individual measurements [2, 8]: 54.5805% and 55.2276% and 56.4075% and 61.6984% and 12.177% and 15.0468% |
| Cc1c(CCC(=O)O)c2cc(Cl)ccc2n1C(=O)c1cccc(C#N)c1 [IA63] |  |  |  |  |  |  | IC50 ([1]; IRE1a, individual replicates (n1-n4), Supplementary Fig. 2b, 2c, read-out: IC50): 0.101 µM and 0.0841 µM and 0.0981 µM; IC50 ([1]; IRE1a, mean, Supplementary Fig. 2b, 2c, read-out: IC50, mean): 0.09 µM; IC50 ([2]; p-IRE1a, individual replicates (n1-n3), Supplementary Fig. 2b, 2c, read-out: IC50): 0.204 µM and 0.404 µM and 0.0789 µM; IC50 ([2]; p-IRE1a, mean, Supplementary Fig. 2b, 2c, read-out: IC50, mean): 0.23 µM |

The next lines start with results.

| inhibition at 50 µM [1, 3] | inhibition at 50 µM [2, 3] | IC50 [1, 4] | IC50 [1, 5] | IC50 [2, 6] | IC50 [2, 7] | Structure (SMILES) | other results |
| --- | --- | --- | --- | --- | --- | --- | --- |
|  |  | 0.32 µM | 0.473 µM and 0.234 µM and 0.244 µM | 0.73 µM | 0.505 µM and 1.39 µM and 0.29 µM | COc1ccc2c(c1)c(CCC(=O)O)c(C)n2C(=O)c1ccc(N(C)C)cc1 [IA70] |  |
|  |  | 1.01 ± 0.27 µM | 0.895 µM and 0.824 µM and 1.32 µM | 8.81 µM and 8.82 µM | 6.8 µM and 11.6 µM and 8.05 µM | Cc1c(CCC(=O)O)c2cc(-c3cccc(C(=O)O)c3)ccc2n1C(=O)c1ccccc1 [IA149] |  |
|  |  | 1.21 ± 0.82 µM | 2.15 µM and 0.81 µM and 0.672 µM | 6.65 µM | 7.28 µM and 8.07 µM and 4.59 µM | Cc1c(CCC(=O)O)c2cc(-c3cccc(N)c3)ccc2n1C(=O)c1ccccc1 [IA146] |  |
